According to patent US20240317801A1, “PEPTIDOMIMETIC MATRIPTASE 2 INHIBITORS AND USES THEREOF” (Disc Medicine, Inc., priority 2020, published 2024):
pKi: −log10 of the molar value.

Target: T1, Human Recombinant Matriptase 2 (Homo sapiens, UniProt Q8IU80)
T1 construct: purchased Enzo Life Sciences ALX-201-752-1
T1 sequence (Q8IU80 1-811): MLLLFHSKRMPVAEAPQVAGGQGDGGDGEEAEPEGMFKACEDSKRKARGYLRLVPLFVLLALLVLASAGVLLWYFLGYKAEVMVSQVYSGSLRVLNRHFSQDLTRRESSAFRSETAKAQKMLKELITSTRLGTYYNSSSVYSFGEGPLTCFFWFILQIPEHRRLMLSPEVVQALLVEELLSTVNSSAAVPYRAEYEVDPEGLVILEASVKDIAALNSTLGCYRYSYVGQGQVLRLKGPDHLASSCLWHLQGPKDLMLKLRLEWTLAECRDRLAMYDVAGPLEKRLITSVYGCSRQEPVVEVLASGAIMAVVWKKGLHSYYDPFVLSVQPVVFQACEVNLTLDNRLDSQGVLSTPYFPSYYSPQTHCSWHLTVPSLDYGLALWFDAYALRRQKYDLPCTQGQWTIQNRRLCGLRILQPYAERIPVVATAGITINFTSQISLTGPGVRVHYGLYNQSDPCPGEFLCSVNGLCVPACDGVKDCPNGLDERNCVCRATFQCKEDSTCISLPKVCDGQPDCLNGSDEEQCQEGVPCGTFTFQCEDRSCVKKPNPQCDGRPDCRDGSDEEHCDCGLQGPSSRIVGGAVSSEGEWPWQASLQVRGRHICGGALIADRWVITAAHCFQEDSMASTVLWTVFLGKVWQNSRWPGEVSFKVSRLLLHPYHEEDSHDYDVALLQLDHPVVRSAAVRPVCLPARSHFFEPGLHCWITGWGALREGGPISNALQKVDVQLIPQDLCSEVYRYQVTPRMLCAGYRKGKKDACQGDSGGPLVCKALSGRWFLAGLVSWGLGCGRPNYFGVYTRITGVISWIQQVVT
Assay: Matriptase 2 fluorescence-based inhibition assay (Boc-Gln-Ala-Arg-AMC substrate)
Type: biochemical
Conditions: Ki derived from measured IC50 using Cheng-Prusoff equation; 30 min preincubation, 100 μM substrate, 25° C., pH 7.5; read-out: Mat-2 Ki
Experimental: Test compounds were evaluated for their potential to inhibit Human Recombinant Matriptase 2 (in-house and commercial protein from Enzo Life Sciences—cat log—ALX-201-752-1) using fluorescence-based assay. The concentration of Recombinant Matriptase 2 and the substrate used in the assay were: 7 nM (commercial) and 15 nM (In-house Matriptase 2) and 100 μM (Boc-Gln-Ala-Arg-7-amido-4-methyl coumarin hydrobromide—Cat log: B4153-Sigma and I-1550 from Bachem) respectively. The assay buffer used comprised 50 mM TRIS pH 7.5, 150 mM NaCl, 0.01% gelatin (G1393 Sigma). The assay was performed by using 384 well black flat bottom plate from Grenier (Cat log: 781076) at 25° C. The enzyme and the test compound were preincubated for 30 mins, and the plate was read at wavelength Ex: 360/Em:480 nm60 mins after substrate addition. The final assay volume of was 20 μl. Stock solution of compounds were initially prepared in DMSO, which were appropriately diluted for screening to determine IC50 determination (final DMSO conc in the assay was 1%). All the measurements were carried out using the Spectramax M5, Molecular devices. The test compounds were screened at 1 and 10 μM concentrations and IC50 was determined for the interested compounds.
Ki is the binding affinity of an inhibitor. Mat-2 Ki as described herein is the binding affinity of an inhibitor such as a compound as described and provided herein to Mat-2. Mat-2 Ki values are derived from the measured IC50. To determine IC50 values, dose-response curves were generated by plotting percentage inhibition as a function of inhibitor concentration and the data was fitted to a sigmoidal non-linear regression equation (variable slope) using Graph Pad Prism software V7. Mat-2 Ki values as described herein were derived from the IC50 using the Cheng-Prusoff equation, which is understood and appreciated by one the skill in the art. The Mat-2 Ki values of tested compounds as described herein are shown in Table A. Accordingly, the compounds can be used to inhibit matriptase 2 and treat diseases and conditions associated with matriptase 2, such as those described herein.

SMILES | pKi
C[C@@H](O)[C@H](NC(=O)[C@H](CCc1ccccc1)NC(=O)CCc1ccccc1)C(=O)N[C@@H](CC1CCN(C(=N)N)CC1)C(=O)C(=O)NC1CC1 [(3S)-4-(1-carbamimidoylpiperidin-4-yl)-N-cyclopropyl-2-oxidanylidene-3-[[(2S,3R)-3-oxidanyl-2-[[(2S)-4-phenyl-2-(3-phenylpropanoylamino)butanoyl]amino]butanoyl]amino]butanamide] | 6.00 to 7.00
C[C@@H](O)[C@H](NC(=O)[C@H](CCc1ccccc1)NC(=O)CCc1ccccc1)C(=O)N[C@@H](CCCNC(=N)N)C(=O)C(=O)NC1(C)CC1 [(S)-6-guanidino-3-((2S,3R)-3-hydroxy-2-((S)-4-phenyl-2-(3-phenylpropanamido)butanamido)butanamido)-N-(1-methylcyclopropyl)-2-oxohexanamide] | ≥ 7.00
C[C@@H](O)[C@H](NC(=O)[C@H](CCc1ccccc1)NC(=O)CCc1ccccc1)C(=O)N[C@@H](CCCNC(=N)N)C(=O)C(=O)NC1CC1 [(S)—N-cyclopropyl-6-guanidino-3-((2S,3R)-3-hydroxy-2-((S)-4-phenyl-2-(3-phenylpropanamido)butanamido)butanamido)-2-oxohexanamide] | ≥ 7.00
